From patent publication US20190233409A1, “SUBSTITUTED 2,3,4,5-TETRAHYDRO-1H-PYRIDO[4,3-B]INDOLES, METHODS FOR USE THEREOF” (priority 2017, published 2019)

Assays:
[1] = system: calcium canals regulated by the intracellular calcium depot; experiment: Histamine-induced calcium stream in SK-N-SH cells, Phase 2 (lowering of intracellular calcium concentration); type: cell-based; conditions: Homo sapiens, 10 μM histamine, Fura 2 AM, Phase 2: discharge of intraplasmatic calcium
BALB/c male mice [2] = experiment: Training Mice in the Morris Water labyrinth, scopolamine; type: in vivo; conditions: scopolamine 0.6 mg/kg; 1.2.1(5)HCl 0.1 mg/kg, 1.2.1(1)HCl 1 mg/kg, tacrine 3 mg/kg
Protocol: A circular pool of 100 cm diameter and of 30 cm sides was used. It was filled with water at 20-22° C. A circular ceramic platform of 14 cm height was placed in the pool. The behavior of the animals was registered using an automated computer video system in addition with software package of movement analyzer Any-maze (Stoelting Colo., US). The experiments were carried out on aged male mice of BALB/c line weighing 20-24 grams. Before the experiments mice fit for learning were selected. This was done by placing the platform 1 cm above the water level and putting an animal on the platform for 20 seconds. Then the mouse was put in the water on the opposite side of the pool and allowed to find the platform and climb onto it for 60 seconds, where it was left for additional 20 seconds. After that the mouse was repeatedly immersed in the water on the opposite side of the pool and allowed to search for the platform. If it failed in finding the platform within 60 seconds the experimentator helped it to find the platform and climb onto it. If the mice couldn't find the platform itself in two consecutive attempts it was excluded from the experiment. During the next two days the platform was placed 0.5 centimeters lower the water level. Every day the mice were given four attempts for finding the platform within 60 seconds. The time interval between the attempts was 20 seconds, during which the mice stayed on the platform. Every day before the first attempt the mice was placed on the platform for 20 seconds. The time needed for finding and climbing the platform was registered. The animals were sunk in water in two different places on the side of the pool opposite to the platform. […] The animals of the control group were injected with physiological solution. At least 8 animals were used in each group. On the third day the platform was removed and each animal was placed in the pool once for a period of 60 seconds. The time each mouse spent in the area where the platform had been located during the previous days was registered. […]

BALB/c male mice [3] = experiment: Passive Avoidance of Mice in a Shuttle Chamber, scopolamine or MK-801 (Example 8); type: in vivo; conditions: scopolamine 0.3 mg/kg or MK-801 0.1 mg/kg
Protocol: Example 7. […] A shuttle chamber (Ugo Basile, Italy) consisted of two sections was used. […] The sections were connected via a hole which could be shut with a vertical door. The floor was made of transverse metal bars on which DC current impulses could be fed. Experiments were carried out on aged male mice of line BALB/c weighing 20-24 grams.
On the first day of the experiment 30 minutes before training the mice were injected intraintestinally with physiological solution of scopolamine (0.3 mg/kg) or scopolamine in combination with antagonists of 5-HT6 receptors 1.2.1(2)HCl, 1.2.1(4)HCl or 1.2.1(5)HCl. Each group consisted of at least 8 animals. The animals were placed in the light section, and the latent period of the first entry into the dark chamber was registered. Then the vertical door was closed and the animal was punished by 0.6 mA DC current for 3 seconds. After that the animal was carried back to its living cell. In 22-24 hours the same animal was placed in the light section of the shuttle chamber once again and the latent period before its entry into the dark section, the total time of its stay in the light section and the number of entries into the dark section were registered. Each observation lasted for 5 minutes.
The experiment was carried out in the same way as in example 7. On the first day 30 minutes before training the mice were injected intra-intestinally with a physiological solution of scopolamine (0.3 mg/kg) or MK-801(0.1 mg/kg).

BALB/c male mice [4] = experiment: Mice Behavior an Elevated Cross Shaped Labyrinth; type: in vivo; conditions: preference index for open sections, number of defecations
Excerpt: The length of each section in the labyrinth is 30 cm, the width is 5 cm, the height of the walls is 15 cm. Two opposite sections are closed by transparent walls on the sides and on the butt ends, the other two sections are lit and opened. A mouse was placed in the center of the labyrinth and for the next five minutes the number of entries the open and closed sections and the time spent in each type of section was registered. […] The animals usually avoid the open sections (the preference index is between 0.2 and 0.3).

SHK male mice = experiment: Recognition of New Objects by Mice Under Scopolamine and MK-801; type: in vivo; conditions: scopolamine 1 mg/kg and MK-801 0.2 mg/kg
Protocol: The experiments were carried out in a closed cross shaped labyrinth which consisted of 4 peripheral sections connected with the central chamber via a 7×7 cm hole. The labyrinth was made of black plastic and its sections were of 14×14×14 cm size. The top cover of the labyrinth was transparent.
A mouse was placed in the central section of the labyrinth and allowed to investigate the environment. A mouse was considered to have entered a section once all of its four paws were inside the chamber. A test was considered to be completed when the mouse had moved 12 times between the sections, having made a total of 13 visits. The floor of the labyrinth was cleaned after each animal.
With each mouse the test was carried out twice with 1 hour interval.
During the first test, each section of the labyrinth contained a circular plastic cup of 3 cm height and 7 cm diameter. During the second test the cover in each of the two opposing sections was replaced by a conical glass bulb of 7 cm height and 4 cm across the bottom. The time that the mice spent in each section of the labyrinth was registered and the index of new object recognition was calculated as the ratio of the time spent in the sections with the bulbs to the time spent in all sections of the labyrinth. If no preference is given to the sections with new objects the index is 0.5.
When new objects appear the mice spend more time in the section containing them that results in an increased recognition index. Scopolamine (1 mg/kg) and MK-801 (0.2 mg/kg) disturbed learning (memory) that leads to lowering of the recognition index.

BALB/c male mice [5] = experiment: Passive Avoidance of Mice in a Shuttle Chamber, memory disturbed by scopolamine (Example 7); type: in vivo; conditions: scopolamine 0.3 mg/kg, injected 30 minutes before training
Protocol: Example 7. […] A shuttle chamber (Ugo Basile, Italy) consisted of two sections was used. […] The sections were connected via a hole which could be shut with a vertical door. The floor was made of transverse metal bars on which DC current impulses could be fed. Experiments were carried out on aged male mice of line BALB/c weighing 20-24 grams. […] Each group consisted of at least 8 animals. The animals were placed in the light section, and the latent period of the first entry into the dark chamber was registered. Then the vertical door was closed and the animal was punished by 0.6 mA DC current for 3 seconds. After that the animal was carried back to its living cell. In 22-24 hours the same animal was placed in the light section of the shuttle chamber once again and the latent period before its entry into the dark section, the total time of its stay in the light section and the number of entries into the dark section were registered. Each observation lasted for 5 minutes. The experiment was carried out during the day time in an isolated laboratory using white noise at a level of about 70 decibel above the human hearing threshold. Scopolamine causes the disturbance of training (memory loss) which results in […]. The fact that 5-HT6 receptor antagonists can improve the learning ability that has been disturbed by scopolamine is regarded as evidence for their nootropic effect.

EC50 [1] [µM]	SMILES	improvement of mice's training (Morris water labyrinth, FIGS. 11-12) (BALB/c male mice [2])	nootropic action (passive avoidance, FIGS. 5-10) (BALB/c male mice [3])	tranquilizing action (elevated cross shaped labyrinth, figure 19-21) (BALB/c male mice [4])	nootropic action (new object recognition, FIG. 13-14) (SHK male mice)	nootropic action (passive avoidance, FIGS. 2-4) (BALB/c male mice [5])
0.15	Cc1ccc2c(c1)c1c(n2CCc2ccccc2)CCN(C)C1.Cl [1.2.1(1)HCl, 2,8-dimethyl-5-(2-phenylethyl)-2,3,4,5-tetrahydro-1H-pyrido[4,3-b]indole hydrochloride]	statistically significant improvement of mice's training	highest activity	exhibit a tranquilizing action, which is the most prominent	nootropic action, the level of which is the most prominent	–
1.58	Cc1ccc2c(c1)c1c(n2CCc2ccc(C)nc2)CCN(C)C1.Cl [1.2.1(5)HCl, 2,8-dimethyl-5-[2-(6-methylpyridin-3-yl)ethyl]-2,3,4,5-tetrahydro-1H-pyrido[4,3-b]indole hydrochloride]	statistically significant improvement of mice's training	exhibit a nootropic action	exhibit a tranquilizing action	nootropic action	exhibit a nootropic action
–	O=C1CC2(CCCC2)CC(=O)N1CCCCN1CCN(c2ncccn2)CC1 [Buspiron]	–	–	exhibit a tranquilizing action	–	–
–	Nc1c2c(nc3ccccc13)CCCC2 [tacrine]	statistically significant improvement of mice's training	–	–	–	–
